Assay results from US20110224147A1, “METHODS AND COMPOSITIONS” (Relevare Aust. Pyt. Ltd., priority 2008, published 2011).
Marks after values point to notes of the source that are not given here.

Key:
[1] = tested on: hyperalgesia caused by STZ-induced diabetic neuropathy; assay: Streptozotocin-induced diabetic neuropathy model (paw flick latency, radiant heat plantar test); format: in vivo, rat; conditions: diabetic rats
normal rats = assay: Open field activity monitor (sedation), normal rats
Procedure: (§1) All experiments were performed on male Wistar rats, weight 170-220 g for experiments investigating sedation and antinociception using the carrageenan inflammation paradigm and weight 120-200 g for experiments evaluating sedation and antinociception using the diabetic neuropathy model. The experiments were performed in an observer-blinded fashion with parallel positive placebo (gabapentin) and negative placebo (vehicle) treatment controls. All drug solutions and vehicle were given intraperitoneally (ip) in a volume of 1.0 ml.
(§2) Measurement of the movements of a freely moving rat in an open field activity monitor was used. […] The maximum non-sedating doses of each compound alone and in combination were first determined in normal rats and then those doses were tested for sedation in diabetic rats. This was done to be sure that there was no sedation caused by the drugs, particularly in diabetics that are known to be more susceptible to CNS depressants.
(§3) The open field activity monitor (MedAssociates Inc. St. Albans, Vt. 05478, USA) is an enclosure with a quiet and darkened environment. It contains 16 intersecting beams of infrared light. Interruptions of beams by individual rats moving around the enclosure were recorded by computer. These measurements were converted to the total rest time in seconds during a 20 min period in the apparatus. Rest times of drug-treated rats were compared with vehicle-treated controls using ANOVA with Dunnet post hoc test.
(§4) Animals naïve to drug treatment were acclimatized to the lab environment and individual rats were selected randomly from a group one at a time. They were injected (ip) with vehicle, a test drug dose or a combination of drugs in an operator-blinded fashion. Five minutes after the ip injection each rat was placed in the open field activity monitor for a 20-min period.
(§5) Groups of rats were tested with the open field activity monitor as above with the following ip treatments: • vehicle controls, n=121 experiments • CNSB002 at doses 10 and 20 mg/kg, n=20 and 10 experiments • morphine at doses 6.4 and 3.2 mg/kg, n=21 and 20 experiments • a combination of CNSB002 at 10 mg/kg with morphine at 3.2 mg/kg, n=21 experiments • a combination of CNSB002 at 5.0 mg/kg with morphine at 3.2 mg/kg, n=19 experiments • gabapentin at doses of 100 and 50 mg/kg, n=26 each experiments • a combination of GABApentin at 50 mg/kg with morphine at 3.2 mg/kg, n=19 experiments

diabetic rats = assay: Open field activity monitor (sedation), diabetic rats
Procedure: as §1, §2, §3, §4, §5
Rats were injected ip with streptozotocin (STZ; […] total dose) dissolved in 0.9% w/v sodium chloride solution. The 150 mg dose was given in two 75 mg/kg injections on consecutive days. Diabetes was confirmed one week after injection of STZ by measurement of tail vein blood glucose levels with AccuCheck Active test strips and a reflectance colorimeter (AccuCheck Glucometer, Roche). Only animals with final blood glucose levels ≧15 mM were deemed to be diabetic. The rats were retested for hyperglycaemia once per week to confirm continued high blood glucose readings. Hyperalgesia was assessed by measurement of paw flick latency using the radiant heat plantar test described previously by Hargreaves et al, 1988 supra.

[2] = tested on: carrageenan-induced hyperalgesia; assay: Carrageenan paw inflammation test (paw withdrawal latency, noxious heat); format: in vivo, rat; conditions: for antinociception, significance vs vehicle controls: p>0.05
Procedure: as §1
Two tests for antinociception were used: the carrageenan paw inflammation test; and the streptozotocin-induced diabetic neuropathy model. Inflammation of the right hind paw was induced by an intraplantar injection of carrageenan (100 μl of a 2% w/v carrageenan solution in saline). Time was allowed for paw inflammation to develop (2 hours). Paw withdrawal latencies were measured using noxious heat from an infrared beam focused onto the plantar surface of the right hind paw in unrestrained animals using apparatus from Ugo Basile (via G. Borghi 43, 21025 Comerio VA—Italy). The method used was originally described by Hargreaves et al, Pain 32:77-88, 1988.
Paw withdrawal latencies were measured at 10 min intervals before the induction of inflammation with carrageenan injection until 3 stable baseline readings were obtained (baseline readings—see FIG. 1). […] A test drug or drug combination was injected intraperitoneally and paw withdrawal values were measured at 10-minute intervals for the following 30 minutes (test drug readings—see FIG. 1).
The following drug treatments were given ip to separate groups of rats: • vehicle controls, n=63 • CNSB002 at dose range 0.5 mg/kg to 10 mg/kg alone, n=14 each • morphine at dose range 0.2 mg/kg to 3.2 mg/kg alone, n=10 each • combinations of CNSB002 at 5 mg/kg with morphine at 0.2, 0.4, 0.8, 1.6 and 3.2 mg/kg, n=10 each • gabapentin alone at 50 mg/kg, n=20 • combination of gabapentin at 50 mg/kg with morphine 3.2 mg/kg, n=20
Drug and placebo/vehicle treatments were compared statistically using ANOVA with Tukey-Kramer post hoc test.

[3] = CNSB002 10 mg/kg ip alone, p<0.01
[4] = male, Wistar, rat, in vivo, ip, 10 mg/kg, 20 min
[5] = gabapentin 50 mg/kg ip alone, p<0.01
[6] = morphine 3.2 mg/kg ip alone, p<0.05

CC(C)(C)c1cc(CN2CCN(CC(O)c3ccc(Cl)cc3)CC2)cc(C(C)(C)C)c1O (stereo not shown) [CNSB002, 1-(2-(4-chlorophenyl)-2-hydroxy)ethyl-4-(3,5-bis(1,1-dimethyl)-4-hydroxyphenyl)methylpiperazine]
antinociception compared with CNSB002 at 0.5, 1.0 and 2.5 mg/kg ([1]; CNSB002 10 mg/kg ip alone, not vs 5 mg/kg): significantly greater | antinociception, significance vs vehicle controls [1, 3]: significant antinociceptive effect | reversal of hyperalgesia [1, 3]: 26% | antinociception, significance vs vehicle controls ([1]; CNSB002 doses other than 10 mg/kg (0.5-5 mg/kg) ip alone): No other doses of CNSB002 administered alone caused significant antinociception | total rest time during a 20 min period (mean) (normal rats; [4]): 851.2 s | total rest time during a 20 min period (mean) (normal rats; male, Wistar, rat, in vivo, ip, 20 mg/kg, 20 min): 1001.2* seconds | sedation vs vehicle controls (normal rats; rat, in vivo, ip, 10 mg/kg): did not cause sedation | sedation vs vehicle controls (normal rats; rat, in vivo, ip, 20 mg/kg): sedating | total rest time during a 20 min period (mean) (diabetic rats; [4]): 1005.6 s | sedation vs vehicle controls (diabetic rats; rat, in vivo, ip, 10 mg/kg): not sedating | reversal of carrageenan-induced hyperalgesia ([2]; CNSB002 5 mg/kg ip alone): 35% | reversal of carrageenan-induced hyperalgesia ([2]; CNSB002 10 mg/kg ip alone): 35% | antinociception, significance vs vehicle controls ([2]; CNSB002 0.5-10 mg/kg ip alone): No dose of gabapentin or CNSB002 administered alone caused statistically-significant antinociception | antinociception compared with CNSB002 at 0.5 mg/kg ([2]; CNSB002 5 or 10 mg/kg ip alone): significantly greater

NCC1(CC(=O)O)CCCCC1 [gabapentin]
antinociception, significance vs vehicle controls [1, 5]: equally significant antinociception | reversal of hyperalgesia [1, 5]: 26% | total rest time during a 20 min period (mean) (normal rats; normal rats, gabapentin 50 mg/kg ip alone, Table 1C): 753.0 s | sedation vs vehicle controls (normal rats; normal rats, gabapentin 50 mg/kg ip alone, p>0.05): did not cause sedation | total rest time during a 20 min period (mean) (normal rats; normal rats, gabapentin 100 mg/kg ip alone, Table 1C): 881.6* seconds | sedation vs vehicle controls (normal rats; normal rats, gabapentin 100 mg/kg ip alone, p<0.01): caused significant sedation | total rest time during a 20 min period (mean) (diabetic rats; diabetic rats, gabapentin 50 mg/kg ip alone, Table 2A): 985.8 s | sedation vs vehicle controls (diabetic rats; diabetic rats, gabapentin 50 mg/kg ip alone, p>0.05): not sedating | total rest time during a 20 min period (mean) (diabetic rats; diabetic rats, gabapentin 100 mg/kg ip alone, Table 2A): 941.2 s | sedation vs vehicle controls (diabetic rats; diabetic rats, gabapentin 100 mg/kg ip alone, p>0.05): not sedating | antinociception, significance vs vehicle controls ([2]; gabapentin 50 mg/kg ip alone): No dose of gabapentin or CNSB002 administered alone caused statistically-significant antinociception

CN1CC[C@]23c4c5ccc(O)c4O[C@H]2[C@@H](O)C=C[C@H]3[C@H]1C5 [morphine]
antinociception, significance vs vehicle controls [1, 6]: significant antinociceptive effect | reversal of hyperalgesia [1, 6]: 30% | antinociception, significance vs vehicle controls ([1]; morphine alone ip, doses below the highest dose 3.2 mg/kg, p>0.05): No dose of morphine alone caused significant antinociception | sedation vs vehicle controls (normal rats; normal rats, doses of morphine up to 6.4 mg/kg ip): sedation was not caused | total rest time during a 20 min period (mean) (normal rats; normal rats, morphine 3.2 mg/kg ip alone, Table 1B): 961.0 s | sedation vs vehicle controls (normal rats; normal rats, morphine 3.2 mg/kg ip alone, p>0.05 unpaired t test): did not cause sedation | total rest time during a 20 min period (mean) (diabetic rats; diabetic rats, morphine 3.2 mg/kg ip alone, Table 2A): 943.6 s | sedation vs vehicle controls (diabetic rats; diabetic rats, morphine 3.2 mg/kg ip alone, p>0.05): not sedating | total rest time during a 20 min period (mean) (diabetic rats; diabetic rats, morphine 6.4 mg/kg ip alone, Table 2B): 972.6* seconds | sedation vs vehicle controls (diabetic rats; diabetic rats, morphine 6.4 mg/kg ip alone, p<0.01): caused sedation | reversal of carrageenan-induced hyperalgesia ([2]; morphine 3.2 mg/kg ip alone): 24% | antinociception, significance vs vehicle controls ([2]; morphine 0.2-3.2 mg/kg ip alone): caused no significant antinociception
